The record followed here is patent US7432260B2, “Pyrimidine compounds” (Cyclacel Limted, priority 2002, dated 2008).

In one test the test system is A549. In words: 72-h MTT cytotoxicity assay A549. It is filed as cell-based. Particulars: Homo sapiens, A549, 72 h, Table 4. The method, then:
(§1) MTT cytotoxicity assay. […] Standard 72-h MTT (thiazolyl blue; 3-[4,5-dimethylthiazol-2-yl]-2,5-diphenyltetrazolium bromide) assays were performed (Haselsberger, K.; Peterson, D. C.; Thomas, D. G.; Darling, J. L. Anti Cancer Drugs 1996, 7, 331-8; Loveland, B. E.; Johns, T. G.; Mackay, I. R.; Vaillant, F.; Wang, Z. X.; Hertzog, P. J. Biochemistry International 1992, 27, 501-10). In short: cells were seeded into 96-well plates according to doubling time and incubated overnight at 37° C. Test compounds were made up in DMSO and a 1/3 dilution series prepared in 100 μL cell media, added to cells (in triplicates) and incubated for 72 ho at 37° C. MTT was made up as a stock of 5 mg/mL in cell media and filter-sterilised. Media was removed from cells followed by a wash with 200 μL PBS.
(§2) MTT solution was then added at 20 μL per well and incubated in the dark at 37° C. for 4 h. MTT solution was removed and cells again washed with 200 μL PBS. MTT dye was solubilised with 200 μL per well of DMSO with agitation.
For orientation: Tetrazolium dyes change colour on reduction, which living cells bring about.

For the next test, the target named is CDK7/cyclin H (Homo sapiens, UniProt P50613). Briefly: CDK7 assay. It counts as biochemical. Particulars: Table 2; read-out: Kinase Inhibition IC50 CDK7 cyclin H. Here is the method:
(§3) Kinase assays. […] This was achieved by measurement of incorporation of radioactive phosphate from ATP into appropriate polypeptide substrates. Recombinant protein kinases and kinase complexes were produced or obtained commercially. Assays were performed using 96-well plates and appropriate assay buffers (typically 25 mM β-glycerophosphate, 20 mM MOPS, 5 mM EGTA, 1 mM DTT, 1 mM […], pH 7.4), into which were added 2-4 μg of active enzyme with appropriate substrates. The reactions were initiated by addition of Mg/ATP mix (15 mM MgCl2+100 μM ATP with 30-50 kBq per well of [γ-^32P]-ATP) and mixtures incubated as required at 30° C. Reactions were stopped on ice, followed by filtration through p81 filterplates or GF/C filterplates (Whatman Polyfiltronics, Kent, UK). After washing 3 times with 75 mM aq orthophosphoric acid, plates were dried, scintillant added and incorporated radioactivity measured in a scintillation counter (TopCount, Packard Instruments, Pangbourne, Berks, UK). Compounds for kinase assay were made-up as 10 mM stocks in DMSO and diluted into 10% DMSO inrassay buffer.
(§4) CDK 7 and 9 assays. CTD peptide substrate (biotinyl-Ahx-(Tyr-Ser-Pro-Thr-Ser-Pro-Ser)4-NH2; 1-2 mg/mL) and recombinant human CDK7/cyclin H, CDK9/cyclin T1, or CDK9/cyclin K (0.5-2 μg) were incubated for 45 min at 30° C. in the presence of varying amounts of test compound in 20 mM MOPS pH 7.2, 25 mM β-glycerophosphate, 5 mM EGTA, 1 mM DTT, 1 mM sodium vanadate, 15 mM MgCl2, and 100 μM ATP (containing a trace amount of ^32PγATP) in a total volume of 25 μL in a 96-well microtiter plate. The reaction was stopped by placing the plate on ice for 2 min. Avidin (50 μg) was added to each well, and the plate was incubated at room temp for 30 min. The samples were transferred to a 96-well P81 filter plate, and washed (4×200 μL per well) with 75 mM phosphoric acid. Microscint 40 scintillation liquid (50 μL) was added to each well, and the amount of ^32P incorporation for each sample was measured using a Packard Topcount microplate scintillation counter.

The next test deals with CDK4/cyclin D1 (Homo sapiens, UniProt P11802). Briefly: Kinase assay CDK4/cyclin D1. It counts as biochemical. Particulars: Table 2; read-out: Kinase Inhibition IC50 CDK4 cyclin D1. Here is the method: as §3
Sequence of CDK4/cyclin D1 (P11802 whole entry): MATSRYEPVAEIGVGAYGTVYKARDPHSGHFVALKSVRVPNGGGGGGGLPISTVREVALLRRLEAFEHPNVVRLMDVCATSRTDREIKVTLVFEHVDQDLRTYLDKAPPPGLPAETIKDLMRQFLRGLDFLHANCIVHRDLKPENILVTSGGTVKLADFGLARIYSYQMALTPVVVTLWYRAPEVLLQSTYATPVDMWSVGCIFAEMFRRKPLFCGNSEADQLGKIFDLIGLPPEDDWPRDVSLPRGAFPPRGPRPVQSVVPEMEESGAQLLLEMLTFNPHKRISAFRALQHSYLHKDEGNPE
Sequence of CDK4/cyclin D1 (P24385 whole entry partner): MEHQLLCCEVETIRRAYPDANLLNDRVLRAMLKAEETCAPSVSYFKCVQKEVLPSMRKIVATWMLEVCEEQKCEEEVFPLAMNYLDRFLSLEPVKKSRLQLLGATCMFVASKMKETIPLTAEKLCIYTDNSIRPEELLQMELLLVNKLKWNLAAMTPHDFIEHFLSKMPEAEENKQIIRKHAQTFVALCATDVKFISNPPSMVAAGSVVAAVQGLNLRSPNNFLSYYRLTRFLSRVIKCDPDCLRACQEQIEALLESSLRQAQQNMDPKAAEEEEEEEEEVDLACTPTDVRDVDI
A further test deals with CDK1/cyclin B (Homo sapiens, UniProt P06493). Briefly: Kinase assay CDK1/cyclin B. The conditions noted are these: Table 2; read-out: Kinase Inhibition IC50 CDK1 cyclin B. It counts as biochemical. The method, then: as §3
Sequence of CDK1/cyclin B (P06493 whole entry): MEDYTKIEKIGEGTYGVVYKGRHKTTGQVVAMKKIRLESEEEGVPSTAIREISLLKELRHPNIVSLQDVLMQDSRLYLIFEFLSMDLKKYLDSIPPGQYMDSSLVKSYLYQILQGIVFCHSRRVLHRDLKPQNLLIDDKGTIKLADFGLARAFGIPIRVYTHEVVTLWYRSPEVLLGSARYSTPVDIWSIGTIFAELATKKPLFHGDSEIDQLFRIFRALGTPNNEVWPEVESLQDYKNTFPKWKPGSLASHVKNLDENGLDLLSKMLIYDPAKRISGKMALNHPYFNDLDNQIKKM
Sequence of CDK1/cyclin B (P14635 whole entry partner): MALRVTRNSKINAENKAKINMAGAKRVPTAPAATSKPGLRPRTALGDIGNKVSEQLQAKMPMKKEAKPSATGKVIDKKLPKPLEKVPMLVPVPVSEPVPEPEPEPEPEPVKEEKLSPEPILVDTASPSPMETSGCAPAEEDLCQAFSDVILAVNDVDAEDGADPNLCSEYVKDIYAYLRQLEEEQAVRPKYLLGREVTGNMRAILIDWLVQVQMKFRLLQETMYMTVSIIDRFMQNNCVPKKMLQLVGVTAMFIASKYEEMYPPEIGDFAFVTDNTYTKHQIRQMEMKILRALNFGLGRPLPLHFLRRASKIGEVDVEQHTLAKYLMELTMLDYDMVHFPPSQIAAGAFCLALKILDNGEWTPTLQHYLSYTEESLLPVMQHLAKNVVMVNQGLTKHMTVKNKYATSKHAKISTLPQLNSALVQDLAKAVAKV
In the next test the target is CDK2/cyclin E (Homo sapiens, UniProt P24941). Briefly: Kinase assay CDK2/cyclin E. It is filed as biochemical. The conditions noted are these: Table 2; read-out: Kinase Inhibition IC50 CDK2 cyclin E. Here is the method: as §3
For a further test, the system named is Saos-2. Briefly: 72-h MTT cytotoxicity assay Saos-2. It counts as cell-based. Particulars: Homo sapiens, SAOS-2, 72 h, Table 4. Here is the method:
as §1, §2

The test system of another test is HT29. In words: 72-h MTT cytotoxicity assay HT29. It is filed as cell-based. Particulars: Homo sapiens, HT-29, 72 h, Table 4. Here is the method: as §1, §2
The target in a further test is CDK2/cyclin A (Homo sapiens, UniProt P24941). In words: Kinase assay CDK2/cyclin A. It is filed as biochemical. The conditions noted are these: Table 2; read-out: Kinase Inhibition IC50 CDK2 cyclin A. Here is the method: as §3
For another test, the target named is CDK9/cyclin T1 (Homo sapiens, UniProt P50750). In words: CDK9 assay. It is filed as biochemical. Particulars: Table 2; read-out: Kinase Inhibition IC50 CDK9 cyclin T1. Here is the method: as §3, §4
Sequence of CDK9/cyclin T1 (P50750 whole entry): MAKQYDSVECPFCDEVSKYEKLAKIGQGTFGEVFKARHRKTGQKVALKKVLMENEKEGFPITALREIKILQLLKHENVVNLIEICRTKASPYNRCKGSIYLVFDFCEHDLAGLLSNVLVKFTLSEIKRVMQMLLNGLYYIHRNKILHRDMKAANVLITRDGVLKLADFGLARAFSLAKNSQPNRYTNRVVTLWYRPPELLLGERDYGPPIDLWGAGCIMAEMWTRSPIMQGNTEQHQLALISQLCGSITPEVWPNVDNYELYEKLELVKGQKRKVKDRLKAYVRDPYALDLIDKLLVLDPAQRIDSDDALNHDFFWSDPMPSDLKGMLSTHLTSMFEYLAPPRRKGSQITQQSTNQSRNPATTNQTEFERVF
Sequence of CDK9/cyclin T1 (O60563 whole entry partner): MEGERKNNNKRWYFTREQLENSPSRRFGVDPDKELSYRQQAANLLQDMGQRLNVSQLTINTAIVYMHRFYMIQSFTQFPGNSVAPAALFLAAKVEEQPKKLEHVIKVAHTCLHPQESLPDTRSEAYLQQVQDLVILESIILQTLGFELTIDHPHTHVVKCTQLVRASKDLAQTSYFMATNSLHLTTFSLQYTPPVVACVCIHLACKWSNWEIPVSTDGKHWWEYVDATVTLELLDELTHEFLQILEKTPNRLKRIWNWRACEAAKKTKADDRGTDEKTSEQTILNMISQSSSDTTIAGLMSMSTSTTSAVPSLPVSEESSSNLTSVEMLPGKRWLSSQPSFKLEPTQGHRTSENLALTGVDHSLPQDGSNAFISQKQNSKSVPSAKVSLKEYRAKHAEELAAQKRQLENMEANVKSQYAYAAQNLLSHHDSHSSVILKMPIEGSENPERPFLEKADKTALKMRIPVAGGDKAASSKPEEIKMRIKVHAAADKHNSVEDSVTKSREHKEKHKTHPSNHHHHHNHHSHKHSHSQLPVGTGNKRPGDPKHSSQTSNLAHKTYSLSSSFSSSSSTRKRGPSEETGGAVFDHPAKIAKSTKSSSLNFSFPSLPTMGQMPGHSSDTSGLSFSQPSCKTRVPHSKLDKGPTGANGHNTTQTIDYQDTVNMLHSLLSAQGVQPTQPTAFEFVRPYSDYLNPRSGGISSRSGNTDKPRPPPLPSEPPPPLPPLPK

Sequence of CDK7/cyclin H (P50613 whole entry): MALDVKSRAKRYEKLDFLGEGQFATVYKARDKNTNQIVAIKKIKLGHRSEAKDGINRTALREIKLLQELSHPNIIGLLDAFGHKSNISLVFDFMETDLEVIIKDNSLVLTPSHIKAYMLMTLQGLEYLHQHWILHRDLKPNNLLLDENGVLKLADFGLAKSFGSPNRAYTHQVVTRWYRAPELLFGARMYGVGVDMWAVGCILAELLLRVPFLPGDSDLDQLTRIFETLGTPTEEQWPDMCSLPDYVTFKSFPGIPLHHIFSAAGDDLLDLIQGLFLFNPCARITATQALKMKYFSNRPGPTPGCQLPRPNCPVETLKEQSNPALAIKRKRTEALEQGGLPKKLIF

With `Cc1nc(C)c(-c2ccnc(Nc3ccc(N4CCN(CCOCCO)CC4)cc3)n2)s1` [Compound 7, [4-(2,4-Dimethyl-thiazol-5-yl)-pyrimidin-2-yl]-[4-(4′-2″-ethoxylethanolpiperazino)-phenyl]-amine], the IC50 (usually the midpoint of a concentration-inhibition curve) in the test on A549 turned out to be 3900 nM; on CDK7/cyclin H it was 2200 nM; on CDK4/cyclin D1, 620 nM; on CDK1/cyclin B, 4200 nM; on CDK2/cyclin E it was 1800 nM; with Saos-2, 1600 nM. Further, the values for the IC50 in the test with HT29 and at CDK2/cyclin A were 1600 nM and 1300 nM, respectively.

As to `Cc1nc(C)c(-c2ccnc(Nc3ccc(N4CCN(S(C)(=O)=O)CC4)cc3)n2)s1` [Compound 10, [4-(2,4-Dimethyl-thiazol-5-yl)-pyrimidin-2-yl]-[4-(4-methanesulfonyl-piperazin-1-yl)-phenyl]-amine], the IC50 in the test with A549 was determined as 11000 nM; at CDK4/cyclin D1 it was 11000 nM; on CDK1/cyclin B, 51000 nM; with HT29 it was 6400 nM.

Take `Cc1nc(NC(=O)[C@@H](N)CO)sc1-c1ccnc(Nc2cccc([N+](=O)[O-])c2)n1` [Compound 14, (2S)-2-Amino-3-hydroxy-N-{4-methyl-5-[2-(3-nitro-phenylamino)-pyrimidin-4-yl]-thiazol-2-yl}-propionamide]: the IC50 was 990 nM in the test with A549; 2200 nM on CDK4/cyclin D1; 68 nM at CDK2/cyclin E; 340 nM on CDK9/cyclin T1; 1500 nM in the test with Saos-2; 730 nM in the test on HT29.

As to `Cc1nc(NC(=O)[C@@H](N)[C@H](C)O)sc1-c1ccnc(Nc2cccc([N+](=O)[O-])c2)n1` [Compound 17, (2S,3S)-2-Amino-3-hydroxy-N-{4-methyl-5-[2-(3-nitro-phenylamino)-pyrimidin-4-yl]-thiazol-2-yl}-butyramide], the IC50 in the test on A549 turned out to be 1100 nM; at CDK1/cyclin B it was 2000 nM; on CDK2/cyclin E, 210 nM; in the test with Saos-2, 1200 nM; in the test with HT29, 1200 nM.

For the molecule `Cc1nc(NC(=O)CCCN)sc1-c1ccnc(Nc2cccc([N+](=O)[O-])c2)n1` [Compound 18, 4-Amino-N-{4-methyl-5-[2-(3-nitro-phenylamino)-pyrimidin-4-yl]-thiazol-2-yl}-butyramide], the IC50 in the test with A549 is 2500 nM; on CDK4/cyclin D1, 1100 nM; at CDK2/cyclin E, 180 nM; at CDK9/cyclin T1, 530 nM; in the test with Saos-2, 1100 nM; in the test with HT29, 2400 nM.

For the molecule `Cc1nc(NC(=O)CCl)sc1-c1ccnc(Nc2cccc([N+](=O)[O-])c2)n1` [Compound 24, 2-Chloro-N-{4-methyl-5-[2-(3-nitro-phenylamino)-pyrimidin-4-yl]-thiazol-2-yl}-acetamide], the IC50 with A549 stood at 140 nM; on CDK4/cyclin D1 it was 440 nM; at CDK2/cyclin E, 1100 nM; at CDK9/cyclin T1, 5.8 nM; in the test with Saos-2, 170 nM; in the test on HT29, 140 nM.

`Cc1nc(NC(=O)CN2CCN(C(=O)OC(C)(C)C)CC2)sc1-c1ccnc(Nc2cccc([N+](=O)[O-])c2)n1` [Compound 28, 4-({4-Methyl-5-[2-(3-nitro-phenylamino)-pyrimidin-4-yl]-thiazol-2-ylcarbamoyl}-methyl)-piperazine-1-carboxylic acid tert-butyl ester]: the IC50 was 9900 nM in the test on A549; 29000 nM on CDK4/cyclin D1; 36000 nM at CDK1/cyclin B; 2600 nM at CDK2/cyclin E; 15000 nM with Saos-2; 6740 nM in the test on HT29. Also, at CDK2/cyclin A, the IC50 worked out at 12000 nM.

Regarding `Cc1nc(NS(C)(=O)=O)sc1-c1ccnc(Nc2ccc(F)cc2)n1` [Compound 31, N-{5-[2-(4-Fluoro-phenylamino)-pyrimidin-4-yl]-4-methyl-thiazol-2-yl}-methanesulfonamide], the IC50 in the test on A549 is 2000 nM; on CDK4/cyclin D1 it was 5600 nM; on CDK2/cyclin E it was 300 nM; in the test with Saos-2, 810 nM; with HT29, 4100 nM.

Regarding `Cc1nc(NC(=O)CCl)sc1-c1ccnc(Nc2ccc(F)cc2)n1` [Compound 33, 2-Chloro-N-{5-[2-(4-fluoro-phenylamino)-pyrimidin-4-yl]-4-methyl-thiazol-2-yl}-acetamide], the IC50 stood at 330 nM in the test with A549, 300 nM in the test with Saos-2 and 110 nM with HT29.

As for `CC(=O)N(C)c1ccc(Nc2nccc(-c3sc(C)nc3C)n2)cc1` [Compound 48, N-{4-[4-(2,4-Dimethyl-thiazol-5-yl)-pyrimidin-2-ylamino]-phenyl}-N-methyl-acetamide], the IC50 turned out to be 3000 nM in the test with A549; 3500 nM at CDK7/cyclin H; 2600 nM at CDK4/cyclin D1; 12000 nM on CDK1/cyclin B; 2100 nM on CDK2/cyclin E; 3800 nM in the test on Saos-2. For the same molecule, the concentration for half-maximal inhibition (IC50) in the test with HT29 came out at 2600 nM; at CDK2/cyclin A it was 1700 nM.

As to `Cc1nc(C)c(-c2ccnc(Nc3ccc(NC(=O)CN4CCOCC4)cc3)n2)s1` [Compound 51, N-{4-[4-(2,4-Dimethyl-thiazol-5-yl)-pyrimidin-2-ylamino]-phenyl}-2-morpholin-4-yl-acetamide], the IC50 was 1900 nM with A549; 9600 nM on CDK7/cyclin H; 400 nM at CDK4/cyclin D1; 11000 nM at CDK1/cyclin B; 1700 nM at CDK2/cyclin E; 1100 nM in the test on Saos-2. The IC50 is 1400 nM with HT29 and 2900 nM on CDK2/cyclin A.

Consider `Cc1nc(C)c(-c2ccnc(Nc3ccc(NC(=O)Cn4cncn4)cc3)n2)s1` [Compound 52, N-{4-[4-(2,4-Dimethyl-thiazol-5-yl)-pyrimidin-2-ylamino]-phenyl}-2-[1,2,4]triazol-1-yl-acetamide], for which the IC50 with A549 was determined as 1600 nM; at CDK7/cyclin H it was 2000 nM; on CDK4/cyclin D1, 180 nM; on CDK1/cyclin B, 2500 nM; at CDK2/cyclin E, 440 nM; in the test on Saos-2 it was 1100 nM. The results for the half-inhibitory concentration (IC50) in the test with HT29 and at CDK2/cyclin A were 1600 nM and 1300 nM, respectively.

As for `CNc1nc(C)c(-c2ccnc(Nc3ccc(N4CCNCC4)cc3)n2)s1` [Compound 62, [4-(4-Methyl-2-methylamino-thiazol-5-yl)-pyrimidin-2-yl]-(4-piperazin-l-yl-phenyl)-amine], the IC50 in the test with A549 came out at 190 nM; at CDK4/cyclin D1, 7 nM; on CDK1/cyclin B, 980 nM; with Saos-2 it was 260 nM; with HT29, 180 nM.

For `Cc1nc(C)c(-c2ccnc(Nc3ccc(S(C)(=O)=O)cc3)n2)s1` [Compound 85, [4-(2,4-Dimethyl-thiazol-5-yl)-pyrimidin-2-yl]-(4-methanesulfonyl-phenyl)-amine], the half-maximal inhibitory concentration (IC50) is 11000 nM on CDK7/cyclin H; 3800 nM at CDK4/cyclin D1; 48 nM on CDK1/cyclin B; 28 nM at CDK2/cyclin E; 1 nM at CDK2/cyclin A.

In the case of `CNc1nc(C)c(-c2ccnc(Nc3cccc(CO)c3)n2)s1` [Compound 91, {3-[4-(4-Methyl-2-methylamino-thiazol-5-yl)-pyrimidin-2-ylamino]-phenyl}-methanol], the IC50 worked out at 630 nM on CDK4/cyclin D1, 120 nM on CDK1/cyclin B, 110 nM on CDK2/cyclin E and 100 nM at CDK2/cyclin A.
